# Laboratory results taken from PubChem BioAssay AID489006 (Sanford-Burnham Center for Chemical Genomics, 2010).
# Calls of active or inactive are those of the source. No rule for the calls is given here.
# Tested on: Jurkat NF-kB reporter, luminescence
# Assay: Jurkat NF-kB signaling inhibitors – cell-based, luminescence, selectivity assay for B-cell receptor NF-kB inhibitor project, dose response (AID 489006)
row,SMILES,IC50
1,COc1ccc(-c2ccoc2)cc1[C@H]1[C@H]2C=CC[C@@H](C)[C@@H]2C(=O)N1Cc1ccccc1,50.4 µM (inactive)
2,Cc1c(CCC(=O)N2CCC[C@H]2C(=O)O)c(=O)oc2cc3oc4c(c3cc12)CCCC4,> 80 µM (inactive)
3,COC(=O)[C@@]12OC[C@]34[C@H]([C@@H](O)[C@@H]1O)[C@@]1(C)C(=O)C(O[C@@H]5OC(CO)[C@@H](O)[C@@H](O)[C@@H]5O)=C[C@@H](C)[C@@H]1C[C@H]3OC(=O)[C@H](OC(=O)/C=C(\C)C(C)(C)OC(C)=O)[C@@H]24 (stereo partly drawn),0.82 µM
4,COC(=O)c1c(NC(=O)c2cccc([N+](=O)[O-])c2)sc(C(N)=O)c1C,> 80 µM (inactive)
5,O=S(=O)(c1cnc(Cl)c(Cl)c1)N1CCCc2ccccc21,18.6 µM
6,Cc1ccc(S(=O)(=O)Nc2ccc3c(c2)n(C)c(=O)n3C)cc1,73 µM (inactive)
7,N=c1ccn(Cc2c(Cl)cccc2Cl)cc1,> 80 µM (inactive)
8,Cc1nc2ccccn2c1C(=O)/C=C/c1cccc([N+](=O)[O-])c1,4.57 µM
9,COc1ccc(-c2noc(N3CCC(C(=O)Nc4cccc(OC)c4)CC3)n2)cc1,> 80 µM (inactive)
10,Cc1cc(-c2cc(C(=O)NCc3ccccc3)on2)nc(S(C)(=O)=O)n1,3.91 µM
11,COc1ccc(-n2c(-c3ccc(Br)cc3)c[n+]3c2CCc2ccccc2-3)cc1,31.8 µM (inactive)
12,COc1ccc(C=C(C(C)=O)C(C)=O)cc1OC,6.23 µM
13,Cc1ccoc1C(=O)Nc1ccc(CC(=O)O)cc1,0.26 µM
14,CCn1c(=O)cc(SCC(=O)N2CCC(C)CC2)c2ccccc21,> 80 µM (inactive)
15,Cn1c(=O)c2c(SCC(=O)Nc3ccccc3F)nc(-c3ccccc3F)nc2n(C)c1=O,> 80 µM (inactive)
16,Cc1ccc(C2(c3ccc(C)cc3)CC2C(=O)Nc2ccc([N+](=O)[O-])cc2O)cc1 (stereo not drawn),50.1 µM (inactive)
17,COc1ccc(/C=C2\SC(=S)N(CCC(=O)Nc3ccc(C(=O)O)cc3)C2=O)cc1OC,> 80 µM (inactive)
18,COc1cccc(N2CCN(c3ncnc4c3[nH]c3ccc(F)cc34)CC2C)c1 (stereo not drawn),1.31 µM
19,O=C(CCCN1C(=O)/C(=C/c2ccccc2Cl)SC1=S)Nc1cccnc1,6.58 µM
20,CC(C)(C)c1ccc(-c2noc(CCC(N)=O)n2)cc1,< 0.16 µM
21,Cc1nc2cc(-c3ccccc3)nn2c(C)c1CCC(=O)NCc1ccco1,> 80 µM (inactive)
22,OCCN1CCN(C(=S)c2ccc(-c3ccccc3)cc2)CC1,7.07 µM
23,Cn1c(=O)n(C)c2cc(/C=C3/NC(=O)N(Cc4ccccc4)C3=O)ccc21,> 80 µM (inactive)
24,CCCc1nc2c(C)cc(-c3nc4ccccc4n3C)cc2n1Cc1ccc(-c2ccccc2C(=O)O)cc1,> 80 µM (inactive)
25,COc1ccc(-n2nnnc2S(=O)(=O)CC(=O)N2CCCCC2)cc1,2.25 µM

row,SMILES,IC50
1,N=c1c2c(n(Cc3ccc(Cl)cc3Cl)c3c1CCC3)CCCC2,16.2 µM
2,COCCCNC(=O)COc1ccc(-c2nccc(-c3ccccn3)n2)cc1,8.68 µM
3,Cc1cc(C)c2nc(NC(=O)C3CSC4(C)CCC(=O)N34)sc2c1 (stereo not drawn),76.5 µM (inactive)
4,CCCNC(=O)c1ccc(N2CCC3(CC2)CC(c2cccc(Br)c2)=NO3)c(NC(=O)c2ccc(Cl)c([N+](=O)[O-])c2)c1,> 80 µM (inactive)
5,COc1cc(C(=O)Nc2cc(C)c(OCC(=O)N3CCOCC3)c(C)c2)cc(OC)c1OC,> 80 µM (inactive)
6,Cc1c(CCO)c(=O)oc2n[nH]c(-c3ccccc3)c12,> 80 µM (inactive)
7,O=C(CCCN1C(=O)S/C(=C\C=C\c2ccccc2)C1=O)Nc1ccc(O)cc1,> 80 µM (inactive)
8,CCc1ccc(-c2nnn(CCC(=O)OC)n2)cc1,1.78 µM
9,CC(C)(C)c1ccc(-c2noc(CCC(=O)NCC3CCCO3)n2)cc1 (stereo not drawn),0.23 µM
10,O=C(Nc1nc(-c2ccccc2)cs1)c1ccccc1NS(=O)(=O)c1ccc(F)cc1,19 µM
11,CCn1c(=O)cc(SCC(=O)N2CCC3(CC2)OCCO3)c2ccccc21,> 80 µM (inactive)
12,COc1cc(C[C@@H]2C(=O)OC[C@H]2Cc2ccc(OC)c(OC)c2)ccc1O,> 80 µM (inactive)
13,COC(=O)c1cc(NC(=O)Nc2cc(OC)ccc2OC)cc(C(=O)OC)c1,63.8 µM (inactive)
14,Cc1c(CCC(=O)NCCCn2ccnc2)c(=O)oc2c(C)c3oc4c(c3cc12)CCCC4,11 µM
15,CCNC(=O)CCc1nc(-c2ccc(C(C)(C)C)cc2)no1,> 80 µM (inactive)
16,COc1ccc(/C=C2/SC(=S)N(CCCC(=O)Nc3ccc(O)cc3)C2=O)cc1,> 80 µM (inactive)
17,C/C(=N\Nc1nc(Nc2ccccc2)nc(N2CCOCC2)n1)c1cccs1,> 80 µM (inactive)
18,Cc1cc(OCC(=O)NC2CC2)c2c(C)c(C)c(=O)oc2c1,> 80 µM (inactive)
19,O=C(Nc1nc2c(Br)cc(Br)cc2c(=O)s1)c1ccco1,2.52 µM
20,CNC(=O)c1cc(Nc2nnc(-c3ccc(O)cc3)c3ccccc23)ccc1OC,> 80 µM (inactive)
21,CC(=O)Nc1ccc(Nc2nc(-c3sc(NC(C)=O)nc3C)cs2)cc1,8.63 µM
22,CCC(CO)Oc1cc(NCc2ccccc2O)c2ncn(C(C)C)c2c1 (stereo not drawn),> 80 µM (inactive)
23,Cc1cc(C)c2nc(NC(=O)[C@@H](NC(=O)c3cccc(S(=O)(=O)N4CCOCC4)c3)C(C)C)sc2c1,20.8 µM (inactive)
24,N=c1ccn2c(n1)OC1C(O)C(CO)OC12 (stereo not drawn),2.21 µM
25,Cn1nnnc1Sc1ncnc2scc(Br)c12,1.13 µM

row,SMILES,IC50
1,COc1ccc(/C=C2/SC(=S)N(CCCC(=O)Nc3cccc(O)c3)C2=O)cc1,> 80 µM (inactive)
2,Cn1c(=O)cc(Nc2ccccc2)c2c(=O)n(-c3ccccc3)c(=O)n(-c3ccccc3)c21,71.9 µM (inactive)
3,Cc1ccc(-c2c[n+]3c(n2-c2ccccc2)SCC3)cc1,> 80 µM (inactive)
4,Cc1nc(Nc2c(Cl)cccc2Cl)sc1C(=O)Nc1ccccc1,> 80 µM (inactive)
5,CC(C)(O)/C=C/C(=O)[C@](C)(O)C1[C@H](O)C[C@@]2(C)C3CC=C4C(C[C@H](O)[C@@H](O)C4(C)C)[C@]3(C)C(=O)C[C@]12C (stereo partly drawn),31.3 µM (inactive)
6,Cc1ccc(/C=C2\SC(=S)N(CCC(=O)NNC(=O)c3ccncc3)C2=O)cc1,> 80 µM (inactive)
7,CCc1ccc(/C=C2\SC(=S)N(CCC(=O)NC3=NCCS3)C2=O)cc1,1.3 µM
8,Cc1ccc(C(=O)CSc2nnc(COc3cc(C)cc(C)c3)o2)cc1,> 80 µM (inactive)
9,COc1cc(-c2[nH]nc3c2C(c2ccco2)C(C#N)=C(N)O3)cc(OC)c1OC (stereo not drawn),61 µM (inactive)
10,Cc1cc2ccccn2c1C(=O)c1ccc(NN)c([N+](=O)[O-])c1,> 80 µM (inactive)
11,COc1ccc(/C=C2\SC(=S)N(CCC(=O)Nc3cccc(O)c3)C2=O)cc1,> 80 µM (inactive)
12,Cn1c(=O)n(C)c2cc(NS(=O)(=O)c3ccccc3)ccc21,51.8 µM (inactive)
13,CCOc1ccc(/C=C2\SC(=S)N(CCC(=O)Nc3cccc(C(=O)O)c3)C2=O)cc1,> 80 µM (inactive)
14,CCc1ccc(-c2nc(CSCC(=O)NC3CC3)c(C)o2)cc1,38.5 µM (inactive)
15,C#CCN(Cc1ccccc1)S(=O)(=O)C=C,9.39 µM
16,CCOC(=O)CNC(=O)CSc1nnc(NC(=O)c2ccc(C)cc2)s1,5.88 µM
17,COc1ccc(-c2ccc(C)cc2)cc1[C@H]1[C@H]2C=CC[C@@H](C)[C@@H]2C(=O)N1Cc1ccccc1,> 80 µM (inactive)
18,CCN1CCN(C(=O)CSc2cc(=O)n(CC)c3ccccc23)CC1,> 80 µM (inactive)
19,COc1cc(/C=N/Nc2nc(Nc3ccccc3)nc(N3CCOCC3)n2)ccc1OC(=O)c1ccco1,> 80 µM (inactive)
20,COc1ccc(/C=C2/SC(=S)N(CCC(=O)O)C2=O)cc1,0.4 µM
21,O=C(O)CCn1c(O)c(C=C2N=c3ccccc3=N2)sc1=S,1.46 µM
22,COc1ccc(OCc2cccc(C(=O)NN)c2)cc1,5.14 µM
23,CCOC(=O)N1CCN(c2ncnc3c2[nH]c2ccc(OC)cc23)CC1,61 µM (inactive)
24,COc1ccc(NC(=O)CN(C)C(=O)C2(c3ccccc3)CCCC2)cc1,> 80 µM (inactive)
25,CCOc1ccc(-n2c(-c3ccccc3)c[n+]3c2CCCCC3)cc1,> 80 µM (inactive)

row,SMILES,IC50
1,COc1ccc(C(=O)Nc2ccccc2C(=O)NCc2ccco2)cc1OC,61.7 µM (inactive)
2,CC(C)OCCCNC(=O)c1c(N)n(/N=C/c2ccccn2)c2nc3ccccc3nc12,40.2 µM (inactive)
3,Cc1c(CCC(=O)O)c(=O)oc2cc3oc4c(c3cc12)CCCC4,7.43 µM
4,CCc1sc(C(=O)Nc2cccc(-n3cnnn3)c2)cc1C,> 80 µM (inactive)
5,C(=N\Nc1nc(Nc2ccccc2)nc(N2CCOCC2)n1)/c1c[nH]c2ccccc12,37.7 µM (inactive)
6,COC(=O)C1=C(c2ccc(-c3ccccc3)c(F)c2)C[C@@H]2CC[C@H]1N2C(=O)N1CCCC1,35.8 µM (inactive)
7,CCn1c(=S)[nH]c2cc(S(=O)(=O)N3CCCCC3)ccc21,> 80 µM (inactive)
8,Cc1ccc(-c2nn3c(C)nnc3c3ccccc23)cc1S(=O)(=O)NC(C)(C)CO,23.9 µM (inactive)
9,Cn1c(=O)cc(OCCCC(=O)NCc2ccccn2)c2ccccc21,> 80 µM (inactive)
10,COC(=O)CSc1nnc(-c2sc3ccccc3c2Cl)o1,3.43 µM
11,O=C(Nc1nc2nc(-c3ccccc3)cc(-c3ccccc3)n2n1)c1ccco1,12 µM
12,CC1(c2nnc(-c3cccc(Cl)c3)o2)CC(c2cccc(Cl)c2)=NO1 (stereo not drawn),> 80 µM (inactive)
13,N=c1ccn(Cc2ccccc2Cl)cc1,> 80 µM (inactive)
14,CCN(CC(=O)Nc1c(F)cccc1F)C(=O)C1(c2ccccc2)CC1,> 80 µM (inactive)
15,COc1ccc(NC(=O)c2cc3c(Cl)nc4ccccc4c3s2)cc1OC,61.9 µM (inactive)
16,Cc1ccc(-c2cn(-c3ccccc3)c3[n+]2CCCS3)cc1,> 80 µM (inactive)
17,CCOc1ccc(NC(=O)CCCc2cc(-c3ccc(OCC)cc3)on2)cc1,> 80 µM (inactive)
18,CCOC(=O)C(=CNc1cc(C)ccc1C)C(=O)OCC,> 80 µM (inactive)
19,CC1CCN(CCCNC(=O)COc2cc(=O)n(C)c3ccccc23)CC1,> 80 µM (inactive)
20,CCN1C(=O)c2cccc3c(S(=O)(=O)Nc4ccccc4)ccc1c23,48.9 µM (inactive)
21,O=C(CCl)N1CCN(S(=O)(=O)c2ccc3c(c2)CCC3)CC1,2.16 µM
22,CC(C)(C)c1ccc(-c2noc(CCC(=O)Nc3cccnc3)n2)cc1,< 0.16 µM
23,CCOc1ccc(-c2noc(CCC(=O)O)n2)cc1,0.7 µM
